Among the data in ChEMBL document CHEMBL1150800, “Multiple-dose escalation study of the safety, pharmacokinetics, and biologic activity of oral AMD070, a selective CXCR4 receptor inhibitor, in human subjects” (Antimicrob Agents Chemother, 2007) are IC50 values, retold here.

Values after ≈ are worked out from the molar mass of the structure shown.

In the test the test system is Human immunodeficiency virus 1. Description: Antiviral activity against HIV1 NL4.3 in human MT4 cells. Format: functional, organism-based. Conditions: Human immunodeficiency virus 1, MT4.

Consider `c1cc(CN2CCCNCCNCCCNCC2)ccc1CN1CCCNCCNCCCNCC1` [PLERIXAFOR], for which inhibition was half-maximal at 1.5 ng/mL (≈ 2.98 nM) (IC50).
